Measurements taken from US11414385B2, “Compounds and methods for treating, detecting, and identifying compounds to treat apicomplexan parasitic diseases” (The University of Chicago, priority 2015, dated 2022).
Values after ≈ are worked out from the molar mass of the structure shown. Like-named read-outs stand apart in the source and are kept apart here.

How the values were obtained:
in vitro = in vitro ADME; conditions: dog, MDCK-MDR1
MDR1 = assay: in vitro; assay type: in vitro ADME; conditions: dog, MDCK-MDR1, MDCK-MDR1 Efflux Ratio
[1] = tested on: T. gondii tachyzoites (RH-YFP strain); assay: In vitro challenge assay for Toxoplasma tachyzoites (RH-YFP in HFF, fluorescence); assay type: cell-based, Toxoplasma gondii
Summary of the method: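 Confluent HFF monolayers infected with 3200 RH-YFP tachyzoites for 1-2 h, then compounds added (screen at 10 μM-10 nM; follow-up 1 μM-31.25 nM) and incubated 72 h at 37 °C. YFP fluorescence served as the measure of parasite burden; IC50 by graphical analysis.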

[2] = Microsomal metabolic stability, mouse; assay type: in vitro ADME; conditions: for half-life: mouse, liver microsomes
[3] = Microsomal metabolic stability, human; assay type: in vitro ADME; conditions: for half-life: human, liver microsomes
[4] = Aqueous kinetic solubility pH 7.4; assay type: physicochemical; conditions: for solubility kinetic: PBS pH 7.4
[5] = Toxoplasma gondii, RH-YFP, read-out: Tachy IC50
[6] = PBS, pH 7.4, aqueous buffer, kinetic from dmso stock

SMILES | Papp A→B (in vitro) | efflux ratio (MDR1) | IC50 ([1]; Toxoplasma gondii, RH-YFP strain, read-out: T. gondii Tachyzoite IC50) | IC50 [1, 5] | reduction of RH YFP tachyzoites in tissue culture ([1]; low nanoM levels) | Mouse microsomal stability T1/2 [2] | half-life ([2]; read-out: Mouse liver microsomes T1/2) | half-life ([2]; read-out: Mouse microsomal stability T1/2) | Human microsomal stability T1/2 [3] | half-life ([3]; read-out: Human liver microsomes T1/2) | half-life ([3]; read-out: Human microsomal stability T1/2) | solubility kinetic [4] | solubility kinetic [4, 6] | solubility ([4]; aqueous buffer, kinetic from dmso stock, 100 mM Phosphate Buffer (pH 7.4)) | improved aqueous kinetic solubility (pH 7.4) over ELQ 271 ([4]; relative to ELQ 271) | IC50 ([1]; Toxoplasma gondii, read-out: IC50 against tachyzoites / active infection) | IC90 ([1]; Toxoplasma gondii, read-out: IC 90 against Toxoplasma gondii tachyzoites) | Human liver microsomes T1/2 [3] | remaining after 45 mins in human liver microsomes ([3]; 45 mins)
Cc1[nH]c2c(c(=O)c1-c1ccc(Oc3ccccc3)cc1)CCCC2 [MJM170] | 32.1 ×10⁻⁶ cm/s | < 1.5 | 30 nM | 30 nM | markedly reduces RH YFP tachyzoites | 0.35 h | 0.349 h | 0.333 h | 2.438 h | 2.44 h | 2.43 h | 1.97 µM (≈ 0.653 µg/mL) | 2 µM (≈ 0.663 µg/mL) | 1.97 µM (≈ 0.653 µg/mL) | 10 fold |  |  |  | 
Cc1[nH]c2c(c(=O)c1-c1ccc(Oc3ccc(OC(F)(F)F)cc3)cc1)CCCC2 [JAG21, 2-methyl-3-(4-(4-(trifluoromethoxy)phenoxy)phenyl)-5,6,7,8-tetrahydroquinolin-4(1H)-one] | > 10 ×10⁻⁶ cm/s | < 1.5 |  | 90 nM |  | 1.68 h |  |  |  |  |  |  | 7 µM (≈ 2.91 µg/mL) |  |  | 188 nM | < 125 nM | ∞ | > 99%
